The target in test [1] is purified human recombinant ATM (ataxia telangiectasia mutated), full length (Homo sapiens (Human), UniProt Q13315). Briefly: ATM kinase assay - determination of ATM inhibition (IC50 ATM), TR-FRET. It is filed as biochemical. Put shortly: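 Full-length enzyme, expressed in a mammalian cell line, pre-incubated 15 min with inhibitor in 25 mM HEPES pH 8.0, 10 mM Mg(CH3COO)2, 1 mM MnCl2, 0,1% BSA, 0,01% Brij 35, 5 mM DTT. Full-length cmyc-p53 (Sf21-expressed) and ATP then added, 30-35 min at 22° C. EDTA stop; p53 S15 phosphorylation read by TR-FRET antibodies.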
A general note: TR-FRET usually uses a lanthanide donor and a delayed reading to cut background.

Test [2] has as its system phosphorylation of CHK2 (phospho-Thr68) in HCT116 cells. Kind of test: Cellular pCHK2 assay: bleomycin-induced phosphorylation of CHK2 (phospho-Thr68), immunofluorescence high-content analysis. It is filed as cell-based, human. The note with it: Homo sapiens, HCT-116, 4 h, read-out: IC50 (pCHK2). Put shortly:
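HCT116 cells in DMEM with 10% FCS, incubated overnight at 37° C, then given compounds (1 nM to 30 μM, 0.5% DMSO) together with 10 μM bleomycin. Phospho-Thr68 CHK2 immunostained and imaged by high-content imager; nuclei with pCHK2 above background counted, cell count from propidium iodide DNA stain.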

The target in a further test is mTOR (human) (Homo sapiens (Human), UniProt P42345). Kind of test: mTOR (human) kinase assay, [γ-33P-ATP] filter assay. It is filed as biochemical. The note with it: for ratio IC50 (ATM) : IC50 (mTOR), selectivity with respect to mTOR: as printed:
As to the method:
Furthermore, the effect, in particular inhibition, of other kinases and thus the selectivity of the compounds according to the invention can be determined with the aid of the following assay:
mTOR (human) was incubated with 50 mM HEPES pH 7.5, 1 mM EGTA, 0.01% Tween 20, 2 mg/ml of the substrate, 3 mM MnCl2 and [γ-^33P-ATP] (specific activity approximately 500 cpm/pmol, concentration as necessary). The reaction was initiated by addition of MgATP solution. After incubation at room temperature for 40 minutes, the reaction was stopped by addition of 3% phosphoric acid. 10 μl of the reaction solution were then transferred dropwise onto a P30 filtermat and washed three times for 5 min in 75 mM phosphoric acid and once in methanol, dried and evaluated by means of liquid scintillation counting.

A further test concerns the target PI3K p110α/p85α (human) (Homo sapiens (Human), UniProt P42336). Kind of test: PI3K p110α/p85α (human), non-radioactive assay (HTRF). The test is classed as biochemical. The note with it: for pIC50: read-out: IC50 (PI3Kalpha); for ratio IC50 (ATM) vs PI3Kalpha, selectivity with respect to PI3Kalpha: as printed:
As for the experimental part:
PI3K p110α/p85α (Human), Non-radioactive Assay
(§1) PI3K p110α/p85α (human) was incubated in an assay buffer comprising 10 μM phosphati-dylinositol 4,5-bisphosphate and MgATP (concentration as necessary). The reaction was initiated by addition of MgATP solution. After incubation at room temperature for 40 minutes, the reaction was stopped by addition of a solution consisting of EDTA and biotinylated phosphatidylinositol 3,4,5-trisphosphate. Finally, the detection buffer, consisting of a europium-labelled anti-GST monoclonal antibody, a GST-labelled GRP1 PH domain and streptavidin allophycocyanin, was added. The plate was read out via homogeneous time-resolved fluorescence (HTRF) and the corresponding signals were evaluated via the formula HTRF=10000×(Em665nm/Em620nm).

The next test deals with PI3K p110β/p85α (human) (Homo sapiens (Human), UniProt P42338). Briefly: PI3K p110β/p85α (human), non-radioactive assay (HTRF). It is filed as biochemical. The settings on record: for pIC50: read-out: IC50 (PI3Kbeta); for fold selectivity for ATM over PI3Kbeta (IC50 PI3Kbeta / IC50 ATM): IC50 (ATM) at least 2000 times higher compared with IC50 (PI3Kbeta). As to the method:
PI3K p110β/p85α (Human), Non-radioactive Assay
as §1, with “p110β/p85α” for “p110α/p85α”, “After an” for “After”, “incubation time of 30 min” for “incubation”, “temperature,” for “temperature for 40 minutes,”

For another test, the target named is PI3K p110δ/p85α (human) (Homo sapiens (Human), UniProt O00329). Kind of test: PI3K p110δ/p85α (human), non-radioactive assay (HTRF). The test is classed as biochemical. The note with it: for pIC50: read-out: IC50 (PI3Kdelta); for ratio IC50 (ATM) vs PI3Kdelta, selectivity with respect to PI3Kdelta: as printed:
As to the method:
PI3K p110δ/p85α (Human), Non-radioactive Assay
as §1, with “p110δ/p85α” for “p110α/p85α”, “After an” for “After”, “incubation time of 30 min” for “incubation”, “temperature,” for “temperature for 40 minutes,”

For the next test, the target named is PI3K (p120γ) (human) (Homo sapiens (Human), UniProt P48736). Briefly: PI3K (p120γ) (human), non-radioactive assay (HTRF). It is filed as biochemical. The note with it: for pIC50: read-out: IC50 (PI3Kgamma); for ratio IC50 (ATM) vs PI3Kgamma, selectivity with respect to PI3Kgamma: as printed:
As for the experimental part: PI3K (p120γ) (Human), Non-radioactive Assay
as §1, with “(p120γ)” for “p110α/p85α”, “After an” for “After”, “incubation time of 30 min” for “incubation”, “temperature,” for “temperature for 40 minutes,”, “HTRF=10000×(Em665nm/Em620nm). • MgATP=magnesium 5′-O—[hydroxy({[(hydroxyphosphinato)oxy]phosphinato}oxy)phosphoryl]adenosine • MgCl2=magnesium dichloride • EGTA=ethylene glycol bis(aminoethyl ether) N,N,N′,N′-tetraacetic acid • Tween 20=polysorbate 20 Medicament/pharmaceutical Composition” for “HTRF=10000×(Em665nm/Em620nm).”

pIC50: −log10 of the molar value. Read-outs that look alike come from different tables or passages of the source. Some results are limits rather than exact numbers.

Sequence of PI3K p110δ/p85α (human) (O00329 whole entry): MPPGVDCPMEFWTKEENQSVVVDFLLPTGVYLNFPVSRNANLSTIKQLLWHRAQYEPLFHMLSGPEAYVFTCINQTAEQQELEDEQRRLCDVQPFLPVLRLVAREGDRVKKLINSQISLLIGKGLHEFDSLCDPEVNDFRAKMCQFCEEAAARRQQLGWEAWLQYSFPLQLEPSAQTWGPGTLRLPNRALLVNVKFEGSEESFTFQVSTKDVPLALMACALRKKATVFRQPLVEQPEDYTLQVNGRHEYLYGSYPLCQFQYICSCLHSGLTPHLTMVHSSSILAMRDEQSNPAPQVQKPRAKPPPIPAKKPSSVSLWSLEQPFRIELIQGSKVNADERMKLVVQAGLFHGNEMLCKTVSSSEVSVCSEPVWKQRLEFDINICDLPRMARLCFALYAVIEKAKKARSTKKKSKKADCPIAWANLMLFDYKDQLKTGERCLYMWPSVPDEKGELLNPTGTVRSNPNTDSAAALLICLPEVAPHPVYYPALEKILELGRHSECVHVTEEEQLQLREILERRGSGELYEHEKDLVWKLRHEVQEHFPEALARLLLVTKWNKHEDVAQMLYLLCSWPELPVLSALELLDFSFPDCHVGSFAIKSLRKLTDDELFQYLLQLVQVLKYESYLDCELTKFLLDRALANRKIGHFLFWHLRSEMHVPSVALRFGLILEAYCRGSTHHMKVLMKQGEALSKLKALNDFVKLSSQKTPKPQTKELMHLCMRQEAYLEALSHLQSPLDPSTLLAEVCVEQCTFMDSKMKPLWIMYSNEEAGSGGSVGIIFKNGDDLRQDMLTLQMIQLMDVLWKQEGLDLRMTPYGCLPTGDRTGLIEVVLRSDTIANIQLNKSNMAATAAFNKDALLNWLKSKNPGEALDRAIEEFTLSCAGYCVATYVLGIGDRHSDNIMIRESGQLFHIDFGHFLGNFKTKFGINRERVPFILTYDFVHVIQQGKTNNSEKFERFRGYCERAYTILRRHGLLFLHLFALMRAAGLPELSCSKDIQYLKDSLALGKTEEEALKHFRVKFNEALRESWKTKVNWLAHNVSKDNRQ
Sequence of PI3K p110δ/p85α (human) (P27986 whole entry partner): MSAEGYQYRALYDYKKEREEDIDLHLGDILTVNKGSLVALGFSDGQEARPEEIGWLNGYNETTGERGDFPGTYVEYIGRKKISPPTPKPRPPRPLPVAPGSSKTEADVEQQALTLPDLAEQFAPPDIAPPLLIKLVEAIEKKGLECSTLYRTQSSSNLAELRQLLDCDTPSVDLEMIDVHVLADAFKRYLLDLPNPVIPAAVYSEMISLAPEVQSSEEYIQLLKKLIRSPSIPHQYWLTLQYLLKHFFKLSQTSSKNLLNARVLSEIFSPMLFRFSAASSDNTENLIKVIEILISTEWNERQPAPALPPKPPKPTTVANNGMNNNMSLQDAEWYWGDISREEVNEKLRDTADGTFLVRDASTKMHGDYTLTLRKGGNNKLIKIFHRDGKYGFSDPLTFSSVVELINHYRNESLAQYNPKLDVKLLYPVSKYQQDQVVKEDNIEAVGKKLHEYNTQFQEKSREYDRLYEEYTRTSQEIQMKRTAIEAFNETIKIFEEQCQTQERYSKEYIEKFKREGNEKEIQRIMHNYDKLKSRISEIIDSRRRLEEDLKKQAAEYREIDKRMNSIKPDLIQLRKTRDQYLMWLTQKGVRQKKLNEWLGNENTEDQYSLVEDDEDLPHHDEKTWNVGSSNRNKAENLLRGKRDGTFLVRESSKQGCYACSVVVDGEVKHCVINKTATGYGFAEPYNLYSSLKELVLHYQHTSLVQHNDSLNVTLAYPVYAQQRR
Sequence of PI3K (p120γ) (human) (P48736 whole entry): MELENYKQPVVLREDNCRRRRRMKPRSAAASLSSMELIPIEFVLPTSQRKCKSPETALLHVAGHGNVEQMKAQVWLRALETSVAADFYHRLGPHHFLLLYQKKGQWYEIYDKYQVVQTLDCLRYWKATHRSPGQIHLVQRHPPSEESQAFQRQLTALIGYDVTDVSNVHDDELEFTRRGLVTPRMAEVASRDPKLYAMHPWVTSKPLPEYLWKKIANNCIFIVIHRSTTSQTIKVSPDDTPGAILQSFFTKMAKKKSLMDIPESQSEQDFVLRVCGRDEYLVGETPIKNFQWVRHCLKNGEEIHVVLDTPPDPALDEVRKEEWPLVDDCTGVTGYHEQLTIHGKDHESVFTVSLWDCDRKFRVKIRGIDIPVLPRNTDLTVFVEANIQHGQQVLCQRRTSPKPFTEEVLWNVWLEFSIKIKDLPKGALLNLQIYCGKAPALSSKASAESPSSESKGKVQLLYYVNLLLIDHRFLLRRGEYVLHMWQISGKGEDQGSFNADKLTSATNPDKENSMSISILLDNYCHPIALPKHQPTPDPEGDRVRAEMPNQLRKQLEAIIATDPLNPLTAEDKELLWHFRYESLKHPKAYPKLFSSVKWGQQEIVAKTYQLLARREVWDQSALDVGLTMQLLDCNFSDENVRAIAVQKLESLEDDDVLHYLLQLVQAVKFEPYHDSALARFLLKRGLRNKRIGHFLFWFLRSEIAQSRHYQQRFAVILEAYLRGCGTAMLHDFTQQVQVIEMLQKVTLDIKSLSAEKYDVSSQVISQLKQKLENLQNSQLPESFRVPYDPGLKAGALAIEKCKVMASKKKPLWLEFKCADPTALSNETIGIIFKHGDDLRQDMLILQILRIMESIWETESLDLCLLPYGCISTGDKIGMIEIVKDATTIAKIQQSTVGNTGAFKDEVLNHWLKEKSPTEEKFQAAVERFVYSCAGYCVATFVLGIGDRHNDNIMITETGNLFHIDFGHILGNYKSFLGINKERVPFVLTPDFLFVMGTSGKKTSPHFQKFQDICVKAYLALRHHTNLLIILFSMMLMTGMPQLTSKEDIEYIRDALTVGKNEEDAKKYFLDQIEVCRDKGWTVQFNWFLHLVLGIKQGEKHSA
Sequence of PI3K p110β/p85α (human) (P42338 whole entry): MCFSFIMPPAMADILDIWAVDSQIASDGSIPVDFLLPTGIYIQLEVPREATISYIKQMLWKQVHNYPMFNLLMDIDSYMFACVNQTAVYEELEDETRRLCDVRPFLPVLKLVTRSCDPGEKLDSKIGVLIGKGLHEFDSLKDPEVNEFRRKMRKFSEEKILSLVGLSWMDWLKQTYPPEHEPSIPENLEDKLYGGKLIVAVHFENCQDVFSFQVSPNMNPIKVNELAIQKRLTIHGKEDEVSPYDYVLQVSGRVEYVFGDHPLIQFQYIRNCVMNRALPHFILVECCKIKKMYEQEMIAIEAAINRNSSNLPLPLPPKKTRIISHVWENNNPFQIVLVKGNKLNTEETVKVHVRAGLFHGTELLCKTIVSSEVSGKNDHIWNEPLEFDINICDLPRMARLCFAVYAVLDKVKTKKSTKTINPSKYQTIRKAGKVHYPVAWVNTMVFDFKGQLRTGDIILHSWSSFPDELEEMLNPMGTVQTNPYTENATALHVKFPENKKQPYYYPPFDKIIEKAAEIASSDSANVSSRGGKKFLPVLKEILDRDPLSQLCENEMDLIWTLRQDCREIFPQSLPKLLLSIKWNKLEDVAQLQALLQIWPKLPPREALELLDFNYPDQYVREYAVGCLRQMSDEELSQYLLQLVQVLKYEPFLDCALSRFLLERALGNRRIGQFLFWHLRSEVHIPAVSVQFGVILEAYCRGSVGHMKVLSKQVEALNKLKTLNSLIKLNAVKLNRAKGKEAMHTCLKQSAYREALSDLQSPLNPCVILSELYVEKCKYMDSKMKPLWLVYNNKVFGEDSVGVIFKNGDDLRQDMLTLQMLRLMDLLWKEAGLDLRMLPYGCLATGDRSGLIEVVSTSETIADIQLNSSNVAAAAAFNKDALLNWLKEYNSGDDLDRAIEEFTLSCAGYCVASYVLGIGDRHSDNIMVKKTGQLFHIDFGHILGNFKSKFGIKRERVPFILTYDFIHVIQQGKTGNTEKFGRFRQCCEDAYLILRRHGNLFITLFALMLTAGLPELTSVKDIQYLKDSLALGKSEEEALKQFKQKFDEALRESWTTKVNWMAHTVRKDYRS
Sequence of PI3K p110β/p85α (human) (P27986 whole entry partner): as the sequence (P27986 whole entry partner) above
Sequence of PI3K p110α/p85α (human) (P42336 whole entry): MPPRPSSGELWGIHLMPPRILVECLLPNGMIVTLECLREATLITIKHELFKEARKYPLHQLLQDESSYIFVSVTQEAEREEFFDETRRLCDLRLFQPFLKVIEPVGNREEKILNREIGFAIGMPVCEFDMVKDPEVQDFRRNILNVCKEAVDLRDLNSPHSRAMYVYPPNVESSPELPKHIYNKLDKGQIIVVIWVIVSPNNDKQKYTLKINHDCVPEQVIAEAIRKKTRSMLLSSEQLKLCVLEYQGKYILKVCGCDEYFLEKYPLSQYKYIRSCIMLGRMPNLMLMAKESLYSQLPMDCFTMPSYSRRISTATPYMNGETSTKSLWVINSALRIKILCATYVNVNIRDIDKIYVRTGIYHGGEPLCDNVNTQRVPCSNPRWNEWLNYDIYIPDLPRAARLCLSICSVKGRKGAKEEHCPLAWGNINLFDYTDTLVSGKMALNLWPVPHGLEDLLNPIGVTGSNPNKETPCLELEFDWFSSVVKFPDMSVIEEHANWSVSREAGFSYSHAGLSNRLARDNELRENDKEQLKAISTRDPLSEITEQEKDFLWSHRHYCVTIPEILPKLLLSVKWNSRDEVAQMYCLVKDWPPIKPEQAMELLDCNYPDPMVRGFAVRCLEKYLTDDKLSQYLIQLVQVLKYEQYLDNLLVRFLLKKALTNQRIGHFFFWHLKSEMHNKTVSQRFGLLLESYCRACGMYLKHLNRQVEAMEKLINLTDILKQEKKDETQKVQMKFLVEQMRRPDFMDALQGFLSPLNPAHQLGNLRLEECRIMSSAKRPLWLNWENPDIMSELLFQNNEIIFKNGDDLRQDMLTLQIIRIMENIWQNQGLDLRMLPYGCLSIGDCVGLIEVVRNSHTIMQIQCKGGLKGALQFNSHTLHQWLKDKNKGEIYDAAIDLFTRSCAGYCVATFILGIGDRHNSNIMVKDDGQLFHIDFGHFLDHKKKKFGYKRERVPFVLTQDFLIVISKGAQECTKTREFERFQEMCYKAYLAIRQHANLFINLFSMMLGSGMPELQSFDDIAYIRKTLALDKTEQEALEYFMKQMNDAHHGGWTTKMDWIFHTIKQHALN
Sequence of PI3K p110α/p85α (human) (P27986 whole entry partner): as the sequence (P27986 whole entry partner) above

As to `COc1cc2ncc3c(c2cc1-c1cnn(C)c1)n(-c1ncc(F)cc1F)c(=O)n3C` [Compound Example 1, 1-(3,5-Difluoropyridin-2-yl)-7-methoxy-3-methyl-8-(l-methyl-1H-pyrazol-4-yl)-1,3-dihydroimidazo[4,5-c] quinolin-2-one], the pIC50 in test [1] is over 8.00; in test [1] (10 μM ATP, substrate p53), over 8.00; in test [2], over 6.70; at mTOR (human), under 4.52; on PI3K p110α/p85α (human), under 4.52; at PI3K p110β/p85α (human), under 4.52. The pIC50 on PI3K p110δ/p85α (human) and on PI3K (p120γ) (human) was under 4.52 throughout.

Consider `COc1cc2ncc3c(c2cc1-c1cn[nH]c1)n(-c1c(F)cncc1F)c(=O)n3C` [Compound Example 2, 1-(3,5-Difluoropyridin-4-yl)-7-methoxy-3-methyl-8-(1H-pyrazol-4-yl)-1,3-dihydro-imidazo[4,5-c]quinolin-2-one], for which the pIC50 in test [1] was over 9.00; in test [1] (10 μM ATP, substrate p53), over 9.00; in test [2], over 6.70; against mTOR (human) it was under 5.30; on PI3K p110α/p85α (human), under 4.52; at PI3K p110β/p85α (human) it was under 4.52. The pIC50 on PI3K p110δ/p85α (human) and on PI3K (p120γ) (human) was under 4.52 in each case.

On to `COc1cc2ncc3c(c2cc1-c1cn(C)nc1C)n(-c1c(F)cncc1OC)c(=O)n3C` [Compound Example 4, 8-(1,3-Dimethyl-1H-pyrazol-4-yl)-1-(3-fluoro-5-methoxy-pyridin-4-yl)-7-methoxy-3-methyl-1,3-dihydroimidazo-[4,5-c]quinolin-2-one], for which the pIC50 in test [2] is over 6.70; at mTOR (human), under 4.52; at PI3K p110α/p85α (human) it was under 5.30; at PI3K p110β/p85α (human), under 4.52; on PI3K p110δ/p85α (human), under 5.00; at PI3K (p120γ) (human), under 4.52.

With `COc1cc2ncc3c(c2cc1-c1cnn(C)c1)n(-c1cn(C)nc1C)c(=O)n3C` [Compound Example 5, 1-(1,3-Dimethyl-1H-pyrazol-4-yl)-7-methoxy-3-methyl-8-(1-methyl-1H-pyrazol-4-yl)-1,3-dihydroimidazo[4,5-c]-quinolin-2-one], the pIC50 in test [1] was over 9.00; in test [1] (10 μM ATP, substrate p53) it was over 9.00; in test [2], over 6.70; on mTOR (human), under 4.52; at PI3K p110α/p85α (human) it was under 4.52; on PI3K p110β/p85α (human) it was under 4.52. Further, the pIC50 at PI3K p110δ/p85α (human) and on PI3K (p120γ) (human) was under 4.52 throughout.

On to `COc1cc2ncc3c(c2cc1-c1cn[nH]c1)n(-c1ncccc1F)c(=O)n3C` [Compound Example 7, 1-(3-Fluoropyridin-2-yl)-7-methoxy-3-methyl-8-(1H-pyrazol-4-yl)-1,3-dihydro-imidazo[4,5-c]quinolin-2-one], for which the pIC50 in test [1] is over 9.00; in test [1] (10 μM ATP, substrate p53) it was over 9.00; in test [2], over 6.70; at mTOR (human), under 4.52; on PI3K p110α/p85α (human), under 4.52; on PI3K p110β/p85α (human) it was under 4.52. For the same compound, the pIC50 on PI3K p110δ/p85α (human) and on PI3K (p120γ) (human) was under 4.52 in each case.

In the case of `COc1cc2ncc3c(c2cc1-c1cn[nH]c1)n(-c1c(C)cncc1F)c(=O)n3C` [Compound Example 8, 1-(3-Fluoro-5-methylpyridin-4-yl)-7-methoxy-3-methyl-8-(1H-pyrazol-4-yl)-1,3-dihydroimidazo[4,5-c] quinolin-2-one], the pIC50 was over 9.00 in test [1]; over 9.00 in test [1] (10 μM ATP, substrate p53); over 6.70 in test [2]; under 5.30 against mTOR (human); under 4.52 at PI3K p110α/p85α (human); under 4.52 on PI3K p110β/p85α (human). Moreover, the pIC50 on PI3K p110δ/p85α (human) and on PI3K (p120γ) (human) was under 4.52 each time.

Take `COc1cc2ncc3c(c2cc1-c1cnn(C)c1)n(-c1c(C)n[nH]c1C)c(=O)n3C` [compound 118, 1-(3,5-Dimethyl-1H-pyrazol-4-yl)-7-methoxy-3-methyl-8-(1-methyl-1H-pyrazol-4-yl)-1,3-dihydroimidazo[4,5-c]-quinolin-2-one]: the pIC50 was over 8.00 in test [1] (10 μM ATP, substrate p53) and 6.00 to 6.70 in test [2]. Besides, the “ratio IC50 (ATM) : IC50 (mTOR), selectivity with respect to mTOR” value on mTOR (human) was “at least 2000 times”. In addition, the “fold selectivity for ATM over PI3Kbeta (IC50 PI3Kbeta / IC50 ATM)” value (“fold selectivity … (IC50 PI3Kbeta / IC50 ATM)” below) at PI3K p110β/p85α (human) is “at least 2000 times”.

Regarding `CCc1cncc(F)c1-n1c(=O)n(C)c2cnc3cc(OC)c(-c4cn[nH]n4)cc3c21` [compound 125, 1-(3-Ethyl-5-fluoropyridin-4-yl)-7-methoxy-3-methyl-8-(2H-1,2,3-triazol-4-yl)-1,3-dihydroimidazo[4,5-c] quinolin-2-one], the pIC50 in test [1] (10 μM ATP, substrate p53) is over 9.00; in test [2], 6.00 to 6.70. Moreover, on PI3K p110α/p85α (human), the “ratio IC50 (ATM) vs PI3Kalpha, selectivity with respect to PI3Kalpha” value was “at least 2000 times”. Besides, the “fold selectivity … (IC50 PI3Kbeta / IC50 ATM)” value at PI3K p110β/p85α (human) is recorded as “at least 2000 times”. Besides, the “ratio IC50 (ATM) vs PI3Kdelta, selectivity with respect to PI3Kdelta” value on PI3K p110δ/p85α (human) is “at least 2000 times”. Moreover, on PI3K (p120γ) (human), the “ratio IC50 (ATM) vs PI3Kgamma, selectivity with respect to PI3Kgamma” value was “at least 2000 times”.

`[2H]C([2H])([2H])Oc1cncc(F)c1-n1c(=O)n(C)c2cnc3cc(OC)c(-c4cnn(C)c4)cc3c21` [compound 145, 1-[3-Fluoro-5-(trideuterio-methoxy)-4-pyridyl]-7-methoxy-3-methyl-8-(1-methylpyrazol-4-yl)imidazo-[4,5-c]quinolin-2-one]: the pIC50 in test [1] (10 μM ATP, substrate p53) was over 9.00; in test [2], 6.00 to 6.70. The “ratio IC50 (ATM) : IC50 (mTOR), selectivity with respect to mTOR” value on mTOR (human) is given as “at least 2000 times”. Besides, the “fold selectivity … (IC50 PI3Kbeta / IC50 ATM)” value on PI3K p110β/p85α (human) is “at least 2000 times”. Further, at PI3K p110δ/p85α (human), the “ratio IC50 (ATM) vs PI3Kdelta, selectivity with respect to PI3Kdelta” value was “at least 2000 times”. At PI3K (p120γ) (human), the “ratio IC50 (ATM) vs PI3Kgamma, selectivity with respect to PI3Kgamma” value was “at least 2000 times”.

As for `COc1cc2ncc3c(c2cc1-c1cnn(C)c1)n(-c1ncc(OCS(C)(=O)=O)cc1F)c(=O)n3C` [compound 201, 1-(3-Fluoro-5-methyl-sulfonylmethoxypyridin-2-yl)-7-methoxy-3-methyl-8-(1-methyl-1H-pyrazol-4-yl)-1,3-dihydroimidazo[4,5-c]-quinolin-2-one], the pIC50 was over 9.00 in test [1] (10 μM ATP, substrate p53) and over 6.70 in test [2]. Besides, the “ratio IC50 (ATM) vs PI3Kalpha, selectivity with respect to PI3Kalpha” value at PI3K p110α/p85α (human) is recorded as “at least 2000 times”. Moreover, on PI3K p110β/p85α (human), the “fold selectivity … (IC50 PI3Kbeta / IC50 ATM)” value was “at least 2000 times”. Besides, at PI3K p110δ/p85α (human), the “ratio IC50 (ATM) vs PI3Kdelta, selectivity with respect to PI3Kdelta” value was “at least 2000 times”. The “ratio IC50 (ATM) vs PI3Kgamma, selectivity with respect to PI3Kgamma” value at PI3K (p120γ) (human) is listed as “at least 2000 times”.
